Experiment [1] deals with Amaranthus hypochondriacus. Kind of experiment: Phytotoxicity against Amaranthus hypochondriacus seedlings assessed as inhibition of radical growth at 28 degC by petri dish assay. It counts as functional, organism-based.
Experiment [2] is described as follows: Inhibition of bovine brain calmodulin-dependent cyclic nucleotide phosphodiesterase after 30 min. On the set-up: species or system Bos taurus.
The target of a further experiment is Calmodulin (Bos taurus) (UniProt P62157). Nature of the experiment: Binding affinity to bovine brain calmodulin assessed as decrease in electrophoretic mobility at 0.033 ug/ml for 1.5 hrs by SDS-PAGE in presence of Ca2+ ions.

Calls of active or inactive are those of the source. The calls are words filed in the database; no cut-off is given here.

In the case of `O=C(O)COc1ccc(Cl)cc1Cl` [2,4-DICHLOROPHENOXYACETIC ACID], the IC50 in experiment [1] was 200 µM.

Turning to `CN(C)CCCN1c2ccccc2Sc2ccc(Cl)cc21` [CHLORPROMAZINE], in experiment [2], the IC50 is 9.8 µM. Turning to `CCC[C@@H]1C[C@@H](O)/C=C/CCCC(=O)O1` [HERBARUMIN III], the IC50 in experiment [1] was 20 µM. Further, the result on Calmodulin (Bos taurus) was Active. As to `CCC[C@H]1OC(=O)[C@H](O)CC/C=C/[C@H](O)[C@@H]1O` [HERBARUMIN II], in experiment [2], the concentration for half-maximal inhibition (IC50) turned out to be 6.6 µM. For the same compound, the outcome at Calmodulin (Bos taurus) was Active. On the same counts, the results for `CCC[C@H]1OC(=O)CCC/C=C/[C@H](O)[C@@H]1O` [HERBARUMIN I] are 14.2 µM and “Active”.

Values taken from ChEMBL document CHEMBL1159359, “A new phytotoxic nonenolide from Phoma herbarum” (J Nat Prod, 2003).
